Reference: the NIST ThermoML archive (doi:10.1016/j.tca.2008.10.020)
Numbers after ± are expanded uncertainties.

What was measured:
[1] = Molar enthalpy of transition or fusion; conditions: Crystal 2; DSC
[2] = Crystal 2; DTA

In the case of `[Cl][Pt][Cl]` [platinous chloride], the “Molar enthalpy of transition or fusion” value [1] is reported as 0.0399 ± 0.0227 kcal/mol and the Triple point temperature [2] is reported as 660 ± 10 K.
